Measurements published in patent US10391070B2, “Compositions and methods for treating neurological diseases or injury” (MUSC FOUNDATION FOR RESEARCH DEVELOPMENT, priority 2012, dated 2019).
Where two headings read alike, the source gives them in different places.

Tests used:
Format in all cases: cell-based, mouse
HT22 cells [1] = assay: In vitro neuroprotective activity against glutamate-induced cell death (MTS cell viability); settings: Mus musculus, read-out: Protection PC50
Method: (§1) The HT22 neuronal cell line is a subclone of HT4, derived from the mouse hippocampus (Morimoto and Koshland, 1990). […] HT22 cells were used. The cells were grown in Dulbecco's Modified Eagle's medium (DMEM/high glucose) supplemented with 10% fetal bovine serum (Hyclone) and 5 mL Antibiotic-Antimycotic (Amphotericin B, Penicillin, and Streptomycin; Invitrogen) at 37° C. in 5% CO2.
(§2) Cell viability was assessed by the ability of the viable cells to metabolize 3-(4,5-dimethylthiazol-2-yl)-5-(3-carboxymethoxyphenyl)-2(4-sulfophenyl)2-H-tetrazolium, inner salt (MTS), as described previously (Cory et al., 1991). The metabolism of tetrazolium salts is often used to measure cellular proliferation, but in the system used here, it has been previously shown to correlate well with cell viability as determined by trypan blue exclusion and colony-forming assays (Davis and Maher, 1994). Briefly, HT-22 cells were seeded onto 96-well plates at 5.0×10^3 cells per well in 75 μL of medium and maintained at 37° C. in 5% CO2 overnight prior to the initiation of experimental treatments. For glutamate toxicity testing, cells were subsequently treated with 25 μL of medium containing glutamate (monosodium glutamate, Sigma, 1 M stock concentration in media, to achieve a final concentration of 10 mM) plus inhibitors (stock in DMSO) and maintained at 37° C. in 5% CO2. For t-BuOOH toxicity testing, cells were subsequently treated with 25 μL of medium containing t-BuOOH (Sigma, 10 mM stock concentration, to achieve a final concentration of 50 μM) plus inhibitors (stock in DMSO) and maintained at 37° C. in 5% CO2 for 3 hours, after which the media was removed, cells washed gently with HBSS, the media replaced with standard culture media, and the cells returned to incubation at 37° C. in 5% CO2. For both glutamate and t-BuOOH treatments, 10 μl of MTS solution was added to each well 24 hrs after initial treatment, and the cells were maintained in growth medium for 2 h at 37° C. Absorbance at 490 nm was subsequently measured by a SpectraMax 190 plate reader (Molecular Devices). The growth medium without cells in the presence of MTS solution was used as solution background and untreated cells were considered the controls. Cell viability was calculated as a percentage compared with untreated controls. EC50 determinations were based on 12-point titrations using GraphPad Prism, and each experiment was repeated at least four times. Morphology of HT22 cells following treatments was determined by phase-contrast microscopy. Digital images of cells grown on cell culture plates were captured at 10× magnification.
The neuroprotective properties of VK and its derivatives were estimated through their protective effects against cell death in mouse neuronal HT22 cells induced by exposure to high levels of glutamate, which recapitulates a hallmark of the extracellular environment found in several neurodegenerative diseases and CNS injuries and is a well established model of neuronal oxidative stress. This investigation began by comparing the relative abilities of the two predominant naturally occurring forms of VK, VK1 and VK2, to prevent oxidative cell death. […] Several 1,4-naphthoquinones with various substitutions at the 2′ and 3′ positions were tested to determine the minimum structural requirement of the system and what the optimum scaffold for future developmental efforts and biological validation would be (FIG. 1B and Table 1). […] Substitution by a single methyl group at the 2′ position (VK3) improves the compound's ability to protect against cell death. Various other simple substituents at the 2′ and 3′ positions give the naphthoquinone structure the ability to prevent oxidative cell death at nanomolar concentrations (Table 1 and FIG. 16).

[2] = In vitro neurotoxicity without glutamate (MTS cell viability); settings: mouse, HT22 neuronal cells (without glutamate); HT22 cells without glutamate, 24 hrs, MTS; concentration producing 50% toxicity; read-out: Toxicity TC50
Method: as §1, §2

HT22 cells [3] = assay: as above; settings: for Safety Index TC50/PC50: HT22 cells; for CC50: HT22 cells without glutamate, 24 hrs, MTS, concentration producing 50% toxicity, read-out: Toxicity TC50
Method: as §1, §2

[4] = HT-22, HT22 cells, 10 mM glutamate, 24 hrs, MTS, concentration producing 50% protection

Compound | EC50 (HT22 cells [1]; [4]) [nM] | CC50 at 24 h [2] [µM] | Safety Index TC50/PC50 (HT22 cells [3]) | CC50 (HT22 cells [3]) [µM] | EC50 (HT22 cells [1]; HT-22, 24 h) [nM]
O=C(O)c1cc(=O)c2ccccc2o1 | > 1000 | > 100 |  |  | 
O=C(O)c1coc2ccccc2c1=O | > 1000 | > 100 |  |  | 
O=C(Nc1ccccc1)c1cc(=O)c2ccccc2o1 [4-oxo-N-phenyl-4H-chromene-2-carboxamide] | > 1000 | > 100 |  |  | 
O=C(Nc1ccccc1)c1coc2ccccc2c1=O [4-oxo-N-phenyl-4H-chromene-3-carboxamide] | > 1000 | > 100 |  |  | 
O=C1C=CC(=O)c2ccccc21 [Compound 1a, 1,4-naphthoquinone, reference compound] | 1540 |  | 12 | 19 | 
CC1=C(C)C(=O)c2ccccc2C1=O [Compound 1c] | 118 |  | 254 | 30 | 
NC1=CC(=O)c2ccccc2C1=O [Compound 1d, 2-amino-1,4-naphthoquinone] |  |  | 803 | 49 | 61
CC1=C(N)C(=O)c2ccccc2C1=O [Compound 1e, 2-amino-3-methyl-1,4-naphthoquinone] | 1740 |  | 31 | 54 | 
O=C(O)C1=CC(=O)c2ccccc2C1=O [Compound 1f] | 716 |  | 140 | > 100 | 
O=C1C=C(O)C(=O)c2ccccc21 [Compound 1g] |  |  | 100 | > 100 | 1000
CNC1=CC(=O)c2ccccc2C1=O [Compound 2a, 2-(methylamino)naphthalene-1,4-dione] | 1350 |  | 74 | > 100 | 
CCNC1=CC(=O)c2ccccc2C1=O [Compound 2b, 2-(ethylamino)naphthalene-1,4-dione] | 761 |  | 106 | 81 | 
CC(C)NC1=CC(=O)c2ccccc2C1=O [Compound 2d, 2-(isopropylamino)naphthalene-1,4-dione] | 1700 |  | 27 | 46 | 
CCCNC1=CC(=O)c2ccccc2C1=O [Compound 2e, 2-(propylamino)naphthalene-1,4-dione] | 328 |  | 91 | 30 | 
O=C1C=C(NC2CCCC2)C(=O)c2ccccc21 [Compound 2f, 2-(cyclopentylamino)naphthalene-1,4-dione] | 409 |  | 108 | 44 | 
O=C1C=C(NCC2CCCCC2)C(=O)c2ccccc21 [Compound 2g, 2-((cyclohexylmethyl)amino)naphthalene-1,4-dione] | 54 |  | 1,852 | > 100 | 
O=C1C=C(Nc2ccccc2)C(=O)c2ccccc21 [Compound 2i, 2-(phenylamino)naphthalene-1,4-dione] |  |  | 109 | 7 | 64
